Experimental data taken from EP0973746B1, “SUBSTITUTED 3-CYANO QUINOLINES” (Wyeth Holdings Corporation, priority 1997, dated 1998).
Values after ≈ are worked out from the molar mass of the structure shown. Values joined by “and” are separate entries in the source; they are usually repeats but may differ in a detail not shown here. Equal entries are not always repeated.

What was measured:
[1] = target: T1, His-tagged cytoplasmic domain of EGFR (Homo sapiens, UniProt P00533); experiment: Inhibition of Epidermal Growth Factor Receptor Kinase (EGF-R) using recombinant enzyme; assay type: biochemical; conditions: recombinant enzyme; RR-SRC peptide; average of the number of tests; read-out: IC50;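 note: radiometric kinase assay measuring radiolabeled phosphate transfer from ATP onto the peptide tyrosine by scintillation counting, control is reaction without compound, background subtracted, IC50 from dose-response curve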
T1 construct: containing the EGFR cDNA encoding amino acids 645 - 1186 preceded by Met-Ala-(His)6; made in house; host or cells: Sf9 cells, recombinant baculovirus vHcEGFR52
Description: The enzyme used in this assay is the His-tagged cytoplasmic domain of EGFR.
Compounds to be evaluated were made into 10 mg/mL stock solutions in 100% dimethylsulfoxide (DMSO). Prior to experiment, stock solutions were diluted to 500 µM with 100% DMSO and then serially diluted to the desired concentration with HEPES buffer (30 mM HEPES pH 7.4).
For the enzyme reaction, 10 µL of each inhibitor (at various concentrations) were added to each well of a 96-well plate. […] This was allowed to sit for 10 min on ice and was followed by the addition of 5 µl peptide (80 µM final conc.), 10µl of 4X Buffer (Table A), 0.25 µL ^33P-ATP and 12 µL H2O. The reaction was allowed to run for 90 min at room temperature and was followed by spotting the entire volume on to precut P81 filter papers. The filter discs were washed 2X with 0.5% phosphoric acid and radioactivity was measured using a liquid scintillation counter.
The % inhibition of the test compound was determined for at least three different concentrations and the IC50 value was evaluated from the dose response curve. […] CPM(control) is in units of counts per minute and was a number expressing the amount of radiolabeled ATP (g-33P) incorporated into the RR-SRC peptide substrate by the enzyme after 90 minutes at room temperature in the absence of test compound as measured by liquid scintillation counting. The CPM values were corrected for the background counts produced by ATP in the absence of the enzymatic reaction. The IC50 values reported in TABLE 2 are averages of the number of tests conducted.

SW620 = experiment: Inhibition of cancer cell growth as measured by cell number, SW620; assay type: cell-based, human; conditions: Homo sapiens, SW-620, 48 h, read-out: IC50 SW620;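 note: SW620 was included as a cell line with little or no EGFR or HER2/neu expression, in contrast to receptor-overexpressing lines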
Description: (§1) The cell lines were chosen since they overexpressed epidermal growth factor receptor (EGFR) (i.e. A431) or HER2/neu (SKBR3), or had little to no expression of the these receptors (SW620, LOX, MCF7).

A431 = experiment: Inhibition of cancer cell growth as measured by cell number, A431; assay type: cell-based, human; conditions: Homo sapiens, A-431, 48 h, read-out: IC50 A431;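 note: human A431 line, picked because it overexpresses epidermal growth factor receptor (EGFR)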
Description: as §1

SKBR3 = experiment: Inhibition of cancer cell growth as measured by cell number, SKBR3; assay type: cell-based, human; conditions: Homo sapiens, SK-BR-3, 48 h, read-out: IC50 SKBR3;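 note: SK-BR-3 cells were selected as a line overexpressing HER2/neu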
Description: as §1

[2] = target: Epithelial Cell Kinase (ECK) (Homo sapiens, UniProt P29317); experiment: biochemical
Description: In this standard pharmacological test procedure, a biotinylated peptide substrate is first immobilized on neutravidin-coated microtiter plates. The test drug, the Epithelial Cell Kinase (ECK), Mg^++, sodium vanadate (a protein tyrosine phosphatase inhibitor), and an appropriate buffer to maintain pH (7.2) are then added to the immobilized substrate-containing microtiter wells. ATP is then added to initiate phosphorylation. After incubation, the assay plates are washed with a suitable buffer leaving behind phosphorylated peptide which is exposed to horse radish peroxidase (HRP)-conjugated anti-phosphotyrosine monoclonal antibody. The antibody-treated plates are washed again and the HRP activity in individual wells is quantified as a reflection of degree of substrate phosphorylation.

[3] = target: recombinant human MEK 1 (MAPKK) and recombinant human ERK2 (MAPK); experiment: Mitogen Activated Protein Kinase (MAPK) assay, two component coupled MEK 1 / ERK2; assay type: biochemical; conditions: separate entries for the same compound = evaluated more than one time;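 note: MEK 1-activated ERK2 phosphorylates MBP or Myc peptide with 33P-ATP, filter capture and scintillation counting, inhibitor preincubated with ERK2 30 min at 0 °C, inhibition relative to uninhibited control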
[4] = target: T2, Kinase insert Domain containing Receptor (KDR: the catalytic domain of the VEGF receptor) (Homo sapiens, UniProt P35968); experiment: Inhibition of Kinase insert Domain containing Receptor (KDR); assay type: biochemical; conditions: pH 7.2; radioactive format; read-out: KDR IC50 (converted);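 note: KDR phosphorylating a Glu:Tyr 4:1 copolymer with P32- or P33-labelled ATP, Mg++ and vanadate, read as acid-insoluble radiolabel, compared with compound-free reaction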
T2 construct: KDR: the catalytic domain of the VEGF receptor

[5] = system: human epidermoid tumors (A431); experiment: In vivo inhibition of the growth of human epidermoid tumors (A431); conditions: for S/T = No. Survivors/No. Treated: Day +28 post tumor staging
Description: Representative compounds of this invention (listed below) were evaluated in an in vivo standard pharmacological test procedure which measured its ability to inhibit the growth of human epidermoid tumors. […] BALB/c nu/nu female mice (Charles River, Wilmington, MA) were used in this in vivo standard pharmacological test procedure. A unit of 5 X 10^6 cells were injected SC into mice. When tumors attained a mass of between 100 and 150 mg, the mice were randomized into treatment groups (day zero). […] Control animals received no drug. Tumor mass was determined every 7 days [(length X width^2)/2] for 28 days post staging. Relative tumor growth (Mean tumor mass on days 7, 14, 21, and 28 divided by the mean tumor mass on day zero) is determined for each treatment group.

LOX = experiment: Inhibition of cancer cell growth as measured by cell number, LOX; assay type: cell-based, human; conditions: Homo sapiens, LOX, 48 h, read-out: IC50 LOX;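 note: LOX cells served as a line with low or absent EGFR and HER2/neu expression, in contrast to receptor-overexpressing lines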
Description: as §1

[6] = Table 10, 80 mg/kg/dose IP on days 1,5,9
[7] = Table 10, 80 mg/kg/dose PO on days 1 through 10
[8] = Table 11, 80 mg/kg/dose IP on days 1,5 and 9
[9] = Table 11, 80 mg/kg/dose PO on days 1 through 10

T1 sequence (P00533 669-1210): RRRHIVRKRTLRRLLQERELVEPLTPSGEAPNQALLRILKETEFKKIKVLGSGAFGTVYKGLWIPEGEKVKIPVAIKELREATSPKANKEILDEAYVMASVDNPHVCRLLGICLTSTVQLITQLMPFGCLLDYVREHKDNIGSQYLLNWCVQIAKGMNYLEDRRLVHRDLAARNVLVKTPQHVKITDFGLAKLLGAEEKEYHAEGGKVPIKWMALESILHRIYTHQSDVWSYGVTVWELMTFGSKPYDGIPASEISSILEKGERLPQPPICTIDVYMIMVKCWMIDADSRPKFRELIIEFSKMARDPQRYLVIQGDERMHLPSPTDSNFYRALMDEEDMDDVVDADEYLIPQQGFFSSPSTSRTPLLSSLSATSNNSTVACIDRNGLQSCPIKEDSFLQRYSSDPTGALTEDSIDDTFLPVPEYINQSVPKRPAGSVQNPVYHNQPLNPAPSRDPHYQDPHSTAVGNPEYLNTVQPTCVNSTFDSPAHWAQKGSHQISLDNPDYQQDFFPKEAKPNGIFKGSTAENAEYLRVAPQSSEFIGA
T2 sequence (P35968 834-1162 limits assumed): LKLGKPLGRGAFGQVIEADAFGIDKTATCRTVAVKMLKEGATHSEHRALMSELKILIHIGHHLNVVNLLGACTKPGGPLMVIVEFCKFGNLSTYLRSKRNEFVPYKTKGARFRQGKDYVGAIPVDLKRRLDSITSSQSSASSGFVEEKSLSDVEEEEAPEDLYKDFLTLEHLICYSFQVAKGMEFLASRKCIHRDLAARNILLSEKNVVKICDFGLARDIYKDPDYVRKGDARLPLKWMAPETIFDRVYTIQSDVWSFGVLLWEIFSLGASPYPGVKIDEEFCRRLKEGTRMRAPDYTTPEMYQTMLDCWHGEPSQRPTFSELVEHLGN
Epithelial Cell Kinase (ECK), sequence (P29317 24-976, species assumed): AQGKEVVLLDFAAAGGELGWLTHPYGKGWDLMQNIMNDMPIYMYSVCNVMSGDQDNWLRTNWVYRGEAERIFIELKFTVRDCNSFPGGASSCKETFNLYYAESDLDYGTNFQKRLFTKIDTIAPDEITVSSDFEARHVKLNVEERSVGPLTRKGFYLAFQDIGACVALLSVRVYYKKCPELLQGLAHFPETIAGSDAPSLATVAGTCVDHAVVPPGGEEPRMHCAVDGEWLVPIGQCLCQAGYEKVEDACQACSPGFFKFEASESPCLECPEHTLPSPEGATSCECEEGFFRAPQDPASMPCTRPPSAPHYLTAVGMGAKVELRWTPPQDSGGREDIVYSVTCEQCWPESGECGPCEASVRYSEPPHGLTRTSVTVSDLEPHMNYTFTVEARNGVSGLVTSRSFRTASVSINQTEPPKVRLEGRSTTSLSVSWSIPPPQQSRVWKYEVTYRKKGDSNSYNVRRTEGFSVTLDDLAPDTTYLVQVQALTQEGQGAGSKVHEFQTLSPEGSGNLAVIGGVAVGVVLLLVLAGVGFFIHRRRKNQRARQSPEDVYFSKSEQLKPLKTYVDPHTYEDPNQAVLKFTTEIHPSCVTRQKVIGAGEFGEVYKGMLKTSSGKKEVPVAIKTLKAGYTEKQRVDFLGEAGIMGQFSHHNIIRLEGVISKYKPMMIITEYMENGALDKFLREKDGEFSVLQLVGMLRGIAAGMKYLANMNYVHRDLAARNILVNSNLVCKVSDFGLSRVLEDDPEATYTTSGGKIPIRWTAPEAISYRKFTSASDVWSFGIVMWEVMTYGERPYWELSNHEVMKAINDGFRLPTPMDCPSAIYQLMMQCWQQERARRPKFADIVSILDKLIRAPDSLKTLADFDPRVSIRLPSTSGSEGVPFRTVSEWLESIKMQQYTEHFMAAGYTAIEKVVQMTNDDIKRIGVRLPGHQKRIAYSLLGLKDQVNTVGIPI

Row | SMILES | IC50 (SW620) | IC50 (SKBR3) | IC50 [2] | IC50 [3] | IC50 [4] | also measured
1 | N#Cc1cnc2ccc(NC(=O)C#CCN3CCCCC3)cc2c1Nc1cccc(Br)c1 [Example 169, N-{4-[(3-Bromophenyl)amino]-3-cyano-6-quinolinyl}-4-piperidino-2-butynamide] | 0.1 µg/mL (≈ 0.205 µM) | 0.02 µg/mL (≈ 0.041 µM) | 40.9 µM | > 100 µM |  | IC50 [1]: 0.005 µM; IC50 (A431): 0.01 µg/mL (≈ 0.0205 µM)
2 | CCN(CC)CC=CC(=O)Nc1ccc2ncc(C#N)c(Nc3cccc(Br)c3)c2c1 [Example 100, 4-Diethylamino-but-2-enoic acid [4-(3-bromophenylamino)-3-cyano-quinolin-6-yl]-amide] | 0.8 µg/mL (≈ 1.67 µM) | 0.1 µg/mL (≈ 0.209 µM) | 41.8 µM | 20 µM |  | IC50 (A431): 0.1 µg/mL (≈ 0.209 µM)
3 | CC(C)N(CC#CC(=O)Nc1ccc2ncc(C#N)c(Nc3cccc(Br)c3)c2c1)C(C)C [Example 192, N-[4-[(3-Bromophenyl)amino]-3-cyano-6-quinolinyl]-4-diisopropylamino-2-butynamide] | 0.1 µg/mL (≈ 0.198 µM) | 0.03 µg/mL (≈ 0.0595 µM) | 39.6 µM | > 100 µM |  | IC50 [1]: 0.0006 µM; IC50 (A431): 0.05 µg/mL (≈ 0.0991 µM)
4 | COc1cc2ncc(C#N)c(Nc3cc(O)c(Cl)cc3F)c2cc1OC [Example 319, 4-(4-Chloro-2-fluoro-5-hydroxy-phenylamino)-6,7-dimethoxy-quinoline-3-carbonitrile] |  |  | 0.001 µM | < 1 µM | 1.34 µM | 
5 | COc1cc2ncc(C#N)c(Nc3ccc(F)c(Cl)c3)c2cc1NC(=O)C=CCN1CCOCC1 [Example 205, 4-Morpholin-4-yl-but-2-enoic acid [4-(3-chloro-4-fluorophenylamino)-3-cyano-7-methoxy-quinolin-6-yl]-amide] |  |  | 40.4 µM | > 100 µM |  | %T/C Day 7 [5, 6]: 30%; %T/C Day 14 [5, 6]: 25%; %T/C Day 21 [5, 6]: 38%; %T/C Day 28 [5, 6]: 61%; S/T = No. Survivors/No. Treated [5, 6]: 5/5; %T/C Day 7 [5, 7]: 23%; %T/C Day 14 [5, 7]: 19%; %T/C Day 21 [5, 7]: 23%; %T/C Day 28 [5, 7]: 29%; S/T = No. Survivors/No. Treated [5, 7]: 5/5
6 | COc1cc2c(Nc3ccc(C)c(O)c3)c(C#N)cnc2cc1OCCN(C)C [Example 82, 7-(2-Dimethylamino-ethoxy)-4-(3-hydroxy-4-methylphenylamino)-6-methoxy-quinoline-3-carbonitrile] |  |  | 51 µM | 5.5 µM | 7.64 µM | 
7 | CCOc1cc2ncc(C#N)c(Nc3cccc(Br)c3)c2cc1OC [Example 176, 4-[(3-Bromophenyl)amino]-7-ethoxy-6-methoxy-3-quinolinecarbonitrile] |  |  | 0.01 µM | > 100 µM | 7.53 µM | 
8 | C=CC(=O)Nc1ccc2ncc(C#N)c(Nc3cccc(I)c3)c2c1 [Example 129] |  |  | 22.7 µM | 60 µM |  | IC50 [1]: 0.04 µM
9 | CCOc1cc2ncc(C#N)c(Nc3cccc(Br)c3)c2cc1NC(=O)C=CCN(CC)CC [Example 217, 4-Diethylamino-but-2-enoic acid [4-(3-bromo-phenylamino)-3-cyano-7-ethoxy-quinolin-6-yl]-amide] |  |  | 0.115 µM |  |  | %T/C Day 7 [5, 8]: 25%; %T/C Day 14 [5, 8]: 36%; %T/C Day 21 [5, 8]: 51%; %T/C Day 28 [5, 8]: 56%; S/T = No. Survivors/No. Treated [5, 8]: 5/5; %T/C Day 7 [5, 9]: 30%; %T/C Day 14 [5, 9]: 33%; %T/C Day 21 [5, 9]: 43%; %T/C Day 28 [5, 9]: 42%; S/T = No. Survivors/No. Treated [5, 9]: 5/5
10 | COc1cc2ncc(C#N)c(Nc3ccc(F)c(Cl)c3)c2cc1NC(=O)C=CCN(C)C [Example 203, 4-Dimethylamino-but-2-enoic acid [4-(3-chloro-4-fluorophenylamino)-3-cyano-7-methoxy-quinolin-6-yl]-amide] |  |  | 2.2 µM | < 1 µM and 0.8 µM |  | %T/C Day 7 [5, 6]: 20%; %T/C Day 14 [5, 6]: 12%; %T/C Day 21 [5, 6]: 14%; %T/C Day 28 [5, 6]: 16%; S/T = No. Survivors/No. Treated [5, 6]: 5/5; %T/C Day 7 [5, 7]: 15%; %T/C Day 14 [5, 7]: 8%; %T/C Day 21 [5, 7]: 12%; %T/C Day 28 [5, 7]: 17%; S/T = No. Survivors/No. Treated [5, 7]: 4/5
11 | COc1cc2c(Nc3cc(O)c(Cl)cc3F)c(C#N)cnc2c(OC)c1OC [Example 244, 4-(4-Chloro-2-fluoro-5-hydroxy-phenylamino)-6,7,8-trimethoxy-quinoline-3-carbonitrile] |  |  | 24.8 µM | > 100 µM | > 74.3 µM | 
12 | CC(C)N(C)CC#CC(=O)Nc1ccc2ncc(C#N)c(Nc3cccc(Br)c3)c2c1 [Example 191, N-[4-[(3-Bromophenyl)amino]-3-cyano-6-quinolinyl]-4-(N-isopropyl-N-methylamino)-2-butynamide] |  | 0.06 µg/mL (≈ 0.126 µM) | 42 µM |  |  | 
13 | CCN(CC)CC#CC(=O)Nc1ccc2ncc(C#N)c(Nc3cccc(Br)c3)c2c1 [Example 187, N-[4-[(3-Bromophenyl)amino]-3-cyano-6-quinolinyl]-4-diethylamino-2-butynamide] | 0.05 µg/mL (≈ 0.105 µM) | 0.06 µg/mL (≈ 0.126 µM) | > 42 µM | > 100 µM |  | IC50 [1]: 0.0007 µM; IC50 (LOX): 0.07 µg/mL (≈ 0.147 µM); IC50 (A431): 0.06 µg/mL (≈ 0.126 µM)
14 | COc1cc2ncc(C#N)c(Nc3cccc(SC)c3)c2cc1OC [Example 294, 6,7-Dimethoxy-4-(3-methylsulfanyl-phenylamino)-quinoline-3-carbonitrile] |  |  | 0.002 µM | 9 µM | 17.1 µM | 
15 | COc1cc2ncc(C#N)c(Nc3c(C)cccc3O)c2cc1OC [Example 246, 4-(2-Hydroxy-6-methyl-phenylamino)-6,7-dimethoxy-quinoline-3-carbonitrile] |  |  | 0.006 µM | 35 µM | > 29.8 µM | 
16 | COc1cc2c(Nc3cccc(Br)c3)c(C#N)cnc2c(OC)c1OC [Example 241, 4-(3-Bromo-phenylamino)-6,7,8-trimethoxy-quinoline-3-carbonitrile] |  |  | 7.24 µM | > 100 µM | > 72.4 µM | 
17 | CN(C)CC#CC(=O)Nc1ccc2ncc(C#N)c(Nc3ccc(F)c(Cl)c3)c2c1 [Example 193, N-[4-[(3-Chloro-4-fluorophenyl)amino]-3-cyano-6-quinolinyl]-4-dimethylamino-2-butynamide] | 0.1 µg/mL (≈ 0.237 µM) | 0.003 µg/mL (≈ 0.00711 µM) | 47.4 µM | 50 µM |  | IC50 [1]: 0.0019 µM; IC50 (A431): 0.01 µg/mL (≈ 0.0237 µM)
18 | COc1cc2ncc(C#N)c(Nc3cccc(Br)c3)c2cc1NC(=O)C=CCN1CCOCC1 [Example 200, 4-Morpholin-4-yl-but-2-enoic acid [4-(3-bromo-phenylamino)-3-cyano-7-methoxy-quinolin-6-yl]-amide] | > 5 µg/mL |  | 38.3 µM | > 100 µM |  | 
19 | CCN(CC)CC=CC(=O)Nc1cc2c(Nc3ccc(F)c(Cl)c3)c(C#N)cnc2cc1OC [Example 204, 4-Diethylamino-but-2-enoic acid [4-(3-chloro-4-fluorophenylamino)-3-cyano-7-methoxy-quinolin-6-yl]-amide] |  |  | 20.7 µM | 35 µM |  | %T/C Day 7 [5, 6]: 45%; %T/C Day 14 [5, 6]: 42%; %T/C Day 21 [5, 6]: 55%; %T/C Day 28 [5, 6]: 49%; S/T = No. Survivors/No. Treated [5, 6]: 5/5; %T/C Day 7 [5, 7]: 25%; %T/C Day 14 [5, 7]: 18%; %T/C Day 21 [5, 7]: 43%; %T/C Day 28 [5, 7]: 51%; S/T = No. Survivors/No. Treated [5, 7]: 4/5
20 | COc1cc2c(Nc3cc(O)c(Cl)cc3F)c(C#N)cnc2cc1OCCCN1CCOCC1 [Example 85, 4-(4-Chloro-2-fluoro-5-hydroxy-phenylamino)-6-methoxy-7-(3-morpholin-4-yl-propoxy)-quinoline-3-carbonitrile] |  |  | 0.0411 µM |  | 0.616 µM | 
